# In publication PMC5513091, “A novel Alzheimer’s disease drug candidate targeting inflammation and fatty acid metabolism” (Alzheimer's Research & Therapy, 2017):
# Like-named read-outs stand apart in the source and are kept apart here.
# Key:
# APPswe/PS1∆E9 mice = assay: Elevated plus maze; type: in vivo; details: AD mice fed 200 ppm in chow for 3 months from 10 months of age
# Protocol: The APPswe/PS1∆E9-transgenic mice were characterized previously. Line 85 mice carry two transgenes, the mouse/human chimeric APPswe, linked to Swedish familial AD and human PS1∆E9. At 10 months of age, female transgenic mice were fed a defined diet (Harlan Teklad; Envigo, Indianapolis, IN, USA) with and without CAD-31 (200 ppm, approximately 10 mg/kg/day). Treatment continued for 3 months, followed by behavior testing and tissue harvesting.
# The elevated plus maze is used to analyze the anxiety response of mice. This test relies upon the tendency of mice to have a fear of heights and to navigate toward dark, enclosed spaces and remain there. Our maze is made of gray plastic and consists of four arms (two open without walls and two enclosed by 15.25-cm-high walls) that are 30 cm long and 5 cm wide in the shape of a plus sign. A video tracking system (EthoVision; Noldus Information Technology) is used to automatically collect behavioral data. Mice are habituated to the room 24 h before testing. Mice are also habituated to the maze for 2 minutes before testing by placing them in the center of the maze and blocking entry to the arms. Mice were tested in the maze for a 5-minute period. The anxiety of mice was measured by comparing the time spent in the open arms with time spent in the closed arms. Statistics were computed using GraphPad InStat software.
# MC65 = assay: Aβ toxicity (intracellular); type: cell-based, human; details: read-out: Half-maximal effective concentration, Aβ toxicity (intracellular)
# Protocol: The various phenotypic screening assays were conducted as previously described. Briefly, HT-22, primary cortical neurons, or MC65 was plated and exposed to the different environmental stresses. Cells were treated with varying concentrations of CAD-31, and half-maximal effective concentration (EC50) was determined on the basis of cell viability.
# • An assay that mimics the dramatic loss of neurotrophic support in the old brain is the trophic factor withdrawal assay. Primary embryonic day 18 cortical cells are plated at low density in serum-free medium. At low density, the cells die within 2 days; they can be rescued by combinations of neurotrophic growth factors, but not by one alone ([19] and unpublished data). […] BDNF is a molecule that is also involved in promoting memory and neurogenesis and is reduced in the brain with age and in AD, as well as in other neurological disorders. BDNF has long been considered a drug target for AD [23]. […] A reduction in GSH is a common denominator of old age and essentially all chronic central nervous system (CNS) diseases. J147 and CAD-31 both effectively reduce oxidative stress, with EC50 of 6 nM and 20 nM, respectively. • CAD-31 also prevents loss of energy metabolism that leads to neuron cell death in an in vitro ischemia model. […] Intracellular Aβ toxicity was assayed in the human neuron cell line MC65 that conditionally expresses the C99 fragment of the amyloid precursor protein. When the cells are induced to make Aβ, the cells die within 4 days. Both J147 and CAD-31 block this toxicity at around 10 nM. Therefore, CAD-31 has a repertoire of neuroprotective activities similar but not identical to that of its parent compound, J147.
# ACC-1 = assay: Immunoblotting of hippocampal tissue; type: in vivo, mice; details: hippocampus
# Protocol: (§1) Hippocampal tissue samples were homogenized in 10 volumes of radioimmunoprecipitation assay (RIPA) lysis buffer (50 mM Tris, pH 7.5, 150 mM NaCl, 0.1% SDS, 0.5% deoxycholate, and 1% Nonidet P-40) containing a cocktail of protease and phosphatase inhibitors [[…] each of pepstatin A, aprotinin, phosphoramidon, and leupeptin; 0.5 mM 4-(2-aminoethyl)benzenesulfonyl fluoride hydrochloride; 1 mM ethylene glycol-bis(β-aminoethyl ether)-N,N,N′,N′-tetraacetic acid; 5 mM fenvalerate; and 5 mM cantharidin]. Samples were sonicated (2 × 10 seconds) and centrifuged first at 10,000 × g for 10 minutes and then at 100,000 × g for 60 minutes at 4 °C. The 100,000 × g pellet was taken up either in 6 M guanidine for Aβ analysis or in SDS sample buffer for Western blot analysis. Protein concentrations in the cell extracts were determined using a bicinchoninic acid protein assay (Pierce Biotechnology, Rockford, IL, USA). Equal amounts of protein were solubilized in 2.5× SDS sample buffer, separated on 12% SDS-polyacrylamide gels, transferred to Immobilon-P (EMD Millipore, Billerica, MA, USA), and immunoblotted with the antibodies indicated in the Materials subsection above. For Western blot experiments, protein levels were normalized to actin levels. An unpaired t test was performed to compare two groups at a single time point. When comparing multiple groups, one-way analysis of variance (ANOVA) followed by Tukey’s post hoc test was used. All statistical analysis was conducted using GraphPad InStat software.
# DCX = assay: Immunoblotting of hippocampal tissue; type: in vivo, mice; details: hippocampus
# Protocol: as §1
# ubiquitinated proteins = assay: Immunoblotting of hippocampal tissue; type: in vivo, mice; details: hippocampus
# Protocol: as §1
# [1] = system: autophagy markers LC3 and P62; assay: Immunoblotting of hippocampal tissue; type: in vivo, mice; details: data not shown
# Protocol: as §1
# Acute Toxicity (PO) = type: in vivo
# [2] = system: panel of 60 brain ion channels, transporters, and receptors; assay: Lead Profile Screen; type: binding
# From the text: Before undertaking animal experiments, it is important to determine if a new drug candidate has a chance for further clinical development by determining its pharmacological properties of bioavailability and brain penetrance as well as predicted safety.
smiles,measurement,setting,value
Cc1ccc(N(/N=C/c2cccc(OC(F)(F)F)c2)C(=O)C(F)(F)F)c(C)c1 [CAD-31],time spent on the open arm (disinhibition phenotype),APPswe/PS1∆E9 mice,completely rescued to age-matched WT levels
same,EC50,"MC65; Homo sapiens, MC65, MC65",~10 nM
same,EC50,MC65; MC65,12 nM
same,EC50 at 10 µM,Ames test,> 10000 nM
same,activity in the Ames test,Ames test; 10 μM,showed no sign of acute toxicity or activity
same,phosphorylation of ACC-1,ACC-1; AD mice,greatly increases the depressed level of phosphorylation in AD mice
same,total amount of ACC-1 protein,ACC-1; AD mice,not significantly reduced
same,phosphorylation of ACC-1,ACC-1; WT mice,decreases the phosphorylation of ACC-1 in WT mice
same,expression of the NPC marker DCX,DCX,increased the expression of the NPC marker DCX in the hippocampus
same,RIPA-insoluble ubiquitinated proteins,ubiquitinated proteins; 13-month-old WT and AD mice,reduced
same,ubiquitinated proteins in the soluble fraction,ubiquitinated proteins; data not shown,unchanged
same,expression of the autophagy markers LC3 and P62,[1],"did not, however, alter the expression"
same,acute toxicity,Acute Toxicity (PO),no sign of acute toxicity
same,Oral acute toxicity LD50,Acute Toxicity (PO); observation one week post gavage,>2000 mg/kg
same,interaction with proteins in the lead profile screen panel,"[2]; 10 μM, 60 brain ion channels, transporters, and receptors",did not interact
same,EC50,[2]; all targets of the panel,> 10000 nM
same,EC50 at 10 µM,Micronucleus assay,> 10000 nM
same,activity in the micronucleus assay,Micronucleus assay; 10 μM,showed no sign of acute toxicity or activity
